Test results as given in ChEMBL document CHEMBL1201862, “PubChem BioAssay data set” (2004).
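Cells were grown in 96-well plates and exposed to each compound for 48 hours at five concentrations; endpoints were interpolated linearly between bracketing concentrations, or set to the highest concentration if not reached. The concentration for 50% growth inhibition is given as GI50.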 Active and inactive are the calls of the source. Rule as the data show it: active = GI50 up to about 1.1 µM and inactive = higher.

Columns and labels:
Test in all cases: NCI tumour cell line growth inhibition, 48 h
[1] = test system: A549
[2] = test system: ACHN
[3] = test system: HCC 2998
[4] = test system: HCT-116
[5] = test system: HCT-15
[6] = test system: HOP-92
[7] = test system: K562
[8] = test system: M14
[9] = test system: Malme-3M
[10] = test system: NCI-H522
[11] = test system: OVCAR-5
[12] = test system: SK-MEL-28
[13] = test system: SK-MEL-2
[14] = test system: SNB-19
[15] = test system: U-251
[16] = test system: UACC-257
[17] = test system: T47D

Row | SMILES | GI50 [1] | GI50 [2] | GI50 [3] | GI50 [4] | GI50 [5] | GI50 [6] | GI50 [7] | GI50 [8] | GI50 [9] | GI50 [10] | GI50 [11] | GI50 [12] | GI50 [13] | GI50 [14] | GI50 [15] | GI50 [16] | GI50 [17]
1 | COCCNC1CCC2(SCCS2)c2[nH]c3ccccc3c21 (stereo not given) | > 100 µM (inactive) | 61.9 µM (inactive) | 67.6 µM (inactive) | 50.1 µM (inactive) | 69.8 µM | 21.8 µM (inactive) | 32.2 µM (inactive) | 16 µM (inactive) | > 10 µM (inactive) | 30.8 µM (inactive) | > 100 µM (inactive) | 26.3 µM (inactive) | 44.8 µM (inactive) | > 100 µM (inactive) | 37.2 µM (inactive) | 18 µM (inactive) | 
2 | C=C(C)[C@@H]1CC[C@@H](C)[C@](O)([C@@H]2C[C@@H]([C@H](COC(=O)c3ccccc3)OC(=O)c3ccccc3)OC2=O)C1 | > 100 µM (inactive) | > 100 µM (inactive) | > 100 µM (inactive) | > 100 µM (inactive) | > 100 µM |  | > 100 µM (inactive) | > 100 µM (inactive) | > 100 µM (inactive) | > 100 µM (inactive) | > 100 µM (inactive) | > 100 µM (inactive) | > 100 µM (inactive) | > 100 µM (inactive) | > 100 µM (inactive) | > 100 µM (inactive) | 
3 | CCCCNC(=O)Cn1c2ccc(Br)cc2c2nc3ccccc3nc21 | > 100 µM (inactive) | > 100 µM (inactive) |  | 64.3 µM (inactive) |  | > 100 µM (inactive) | > 100 µM (inactive) | > 100 µM (inactive) |  |  | > 100 µM (inactive) | > 100 µM (inactive) | > 100 µM (inactive) | > 100 µM (inactive) | > 100 µM (inactive) | > 100 µM (inactive) | 93.8 µM (inactive)
4 | N#Cc1ccc(C2NN=CC23C(=O)c2ccccc2OC3c2ccccc2)cc1 (stereo not given) | 29.4 µM (inactive) | 34.7 µM (inactive) | 35.7 µM (inactive) | 20.5 µM (inactive) | 25.4 µM |  | 33.5 µM (inactive) | 97.1 µM (inactive) | 53.7 µM (inactive) | 24.2 µM (inactive) | 45.7 µM (inactive) | 51.1 µM (inactive) | 29.5 µM (inactive) | 27.6 µM (inactive) | 23.8 µM (inactive) | 28 µM (inactive) | 
5 | S=c1sc2c(s1)SCCCCSCCCCSc1sc(=S)sc1SCCCCSCCCCS2 | > 100 µM (inactive) | > 100 µM (inactive) | > 100 µM (inactive) | > 100 µM (inactive) | > 100 µM |  | > 100 µM (inactive) | > 100 µM (inactive) | > 100 µM (inactive) | > 100 µM (inactive) | > 100 µM (inactive) | > 100 µM (inactive) | > 100 µM (inactive) | > 100 µM (inactive) | > 100 µM (inactive) | > 100 µM (inactive) | > 100 µM (inactive)
6 | ClC1(Cl)C2CCOC21n1cnc2ccccc21 (stereo not given) | > 100 µM (inactive) |  | > 100 µM (inactive) | > 100 µM (inactive) | > 100 µM |  | > 100 µM (inactive) | > 100 µM (inactive) | > 100 µM (inactive) | 14.6 µM (inactive) | > 100 µM (inactive) | > 100 µM (inactive) | > 100 µM (inactive) | > 100 µM (inactive) | > 100 µM (inactive) |  | > 100 µM (inactive)
7 | CCOC(=O)Cc1nc2cc(F)c(F)cc2[nH]c1=O | > 100 µM (inactive) | > 100 µM (inactive) | > 100 µM (inactive) | > 100 µM (inactive) | > 100 µM | > 100 µM (inactive) | > 100 µM (inactive) | > 100 µM (inactive) | > 100 µM (inactive) |  | > 100 µM (inactive) | > 100 µM (inactive) | > 100 µM (inactive) | > 100 µM (inactive) | > 100 µM (inactive) | > 100 µM (inactive) | 
8 | CC(C)CC1C(=O)OC(C)(C)OC1=O | > 100 µM (inactive) | > 100 µM (inactive) | > 100 µM (inactive) | > 100 µM (inactive) | > 100 µM |  | > 100 µM (inactive) | > 100 µM (inactive) |  | > 100 µM (inactive) | > 100 µM (inactive) | > 100 µM (inactive) | > 100 µM (inactive) | > 100 µM (inactive) | > 100 µM (inactive) | > 100 µM (inactive) | > 100 µM (inactive)
9 | O=c1[nH]c(=O)n(C2OC(CO)C(O)C2O)cc1OCCCc1ccccc1 (stereo not given) | > 100 µM (inactive) | > 100 µM (inactive) | > 100 µM (inactive) | > 100 µM (inactive) | > 100 µM |  |  | > 100 µM (inactive) | > 100 µM (inactive) |  | > 100 µM (inactive) | > 100 µM (inactive) | > 100 µM (inactive) | > 100 µM (inactive) |  | > 100 µM (inactive) | > 100 µM (inactive)
10 | Cc1ccc2nc(CN3CCCCC3)cc(=O)n2c1 | > 100 µM (inactive) | > 100 µM (inactive) | > 100 µM (inactive) | > 100 µM (inactive) | > 100 µM | > 100 µM (inactive) | > 100 µM (inactive) | > 100 µM (inactive) | > 100 µM (inactive) | > 100 µM (inactive) | > 100 µM (inactive) | > 100 µM (inactive) | > 100 µM (inactive) | > 100 µM (inactive) | > 100 µM (inactive) | > 100 µM (inactive) | 
11 | CNNC1=NS(=O)(=O)c2cc(C(=O)OC)c(Cl)cc2S1 | > 10 µM (inactive) | > 10 µM (inactive) | > 10 µM (inactive) | > 10 µM (inactive) | > 10 µM |  | > 10 µM (inactive) | > 10 µM (inactive) | > 10 µM (inactive) | > 10 µM (inactive) | > 10 µM (inactive) | > 10 µM (inactive) | > 10 µM (inactive) | > 10 µM (inactive) | > 10 µM (inactive) | > 10 µM (inactive) | > 10 µM (inactive)
12 | O=P(Oc1ccc(Cl)cc1)(Oc1ccc(Cl)cc1)N1CC1 | > 10 µM (inactive) | > 10 µM (inactive) | > 10 µM (inactive) |  | > 10 µM |  | > 10 µM (inactive) | > 10 µM (inactive) | > 10 µM (inactive) |  | > 10 µM (inactive) | > 10 µM (inactive) | > 10 µM (inactive) | > 10 µM (inactive) | > 10 µM (inactive) | 4.38 µM (inactive) | > 10 µM (inactive)
13 | CC(C)(Oc1ccc(C2C[C@H]2Cl)cc1)C(=O)O (stereo not given in full) | > 100 µM (inactive) |  |  | > 100 µM (inactive) | > 100 µM | > 100 µM (inactive) | > 100 µM (inactive) |  |  | > 100 µM (inactive) | > 100 µM (inactive) | > 100 µM (inactive) | > 100 µM (inactive) | > 100 µM (inactive) | > 100 µM (inactive) | > 100 µM (inactive) | 15.3 µM (inactive)
14 | COc1ccc(Nc2cc(O)nc(O)n2)cc1 | > 100 µM (inactive) | > 100 µM (inactive) | > 100 µM (inactive) | > 100 µM (inactive) | > 100 µM | > 100 µM (inactive) | > 100 µM (inactive) | > 100 µM (inactive) | > 100 µM (inactive) |  | > 100 µM (inactive) | > 100 µM (inactive) |  | > 100 µM (inactive) | > 100 µM (inactive) | > 100 µM (inactive) | 
